This note sets out measurements from US20080234262A1 (Wyeth, priority 2007, published 2008).

Usually IC50 stands for the concentration needed to halve the response being measured.

The subject of one assay is breast line MDA468. As to the kind of experiment: In vitro cell culture growth assay (MTS), MDA468. The assay is classed as cell-based, human. The settings on record: MDA468 cells, three days after drug treatment. Summed up: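 Steps: plate cells; add inhibitors the next day; incubate 3 days; add MTS dye, which viable cells convert metabolically; measure absorbance at 490 nm; calculate percent of control growth relative to vehicle-treated cells in the same plate.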

In a further assay the test system is prostate line LNCap. The assay can be described thus: In vitro cell culture growth assay (MTS), LNCap.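 Further: viable cell density read by absorbance at 490 nm, growth expressed as percent of vehicle-treated cells on the same plate.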 The settings on record: LNCap cells, three days after drug treatment. The assay is classed as cell-based, human.
A further assay addresses PI3K (Homo sapiens, UniProt P42336). As to the kind of experiment: Fluorescence polarization assay for PI3K.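 Further: PI3K kinase reaction on PIP2 with ATP, 30-60 min, product sensed by GST-GRP with red probe in fluorescence polarization (mP), controls without enzyme and at zero time.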 The assay is classed as biochemical. On the technique in general: Polarisation of emitted light reports the rotation of a fluorescent probe.

Like-named read-outs stand apart in the source and are kept apart here.

PI3K, sequence (P42336 whole entry): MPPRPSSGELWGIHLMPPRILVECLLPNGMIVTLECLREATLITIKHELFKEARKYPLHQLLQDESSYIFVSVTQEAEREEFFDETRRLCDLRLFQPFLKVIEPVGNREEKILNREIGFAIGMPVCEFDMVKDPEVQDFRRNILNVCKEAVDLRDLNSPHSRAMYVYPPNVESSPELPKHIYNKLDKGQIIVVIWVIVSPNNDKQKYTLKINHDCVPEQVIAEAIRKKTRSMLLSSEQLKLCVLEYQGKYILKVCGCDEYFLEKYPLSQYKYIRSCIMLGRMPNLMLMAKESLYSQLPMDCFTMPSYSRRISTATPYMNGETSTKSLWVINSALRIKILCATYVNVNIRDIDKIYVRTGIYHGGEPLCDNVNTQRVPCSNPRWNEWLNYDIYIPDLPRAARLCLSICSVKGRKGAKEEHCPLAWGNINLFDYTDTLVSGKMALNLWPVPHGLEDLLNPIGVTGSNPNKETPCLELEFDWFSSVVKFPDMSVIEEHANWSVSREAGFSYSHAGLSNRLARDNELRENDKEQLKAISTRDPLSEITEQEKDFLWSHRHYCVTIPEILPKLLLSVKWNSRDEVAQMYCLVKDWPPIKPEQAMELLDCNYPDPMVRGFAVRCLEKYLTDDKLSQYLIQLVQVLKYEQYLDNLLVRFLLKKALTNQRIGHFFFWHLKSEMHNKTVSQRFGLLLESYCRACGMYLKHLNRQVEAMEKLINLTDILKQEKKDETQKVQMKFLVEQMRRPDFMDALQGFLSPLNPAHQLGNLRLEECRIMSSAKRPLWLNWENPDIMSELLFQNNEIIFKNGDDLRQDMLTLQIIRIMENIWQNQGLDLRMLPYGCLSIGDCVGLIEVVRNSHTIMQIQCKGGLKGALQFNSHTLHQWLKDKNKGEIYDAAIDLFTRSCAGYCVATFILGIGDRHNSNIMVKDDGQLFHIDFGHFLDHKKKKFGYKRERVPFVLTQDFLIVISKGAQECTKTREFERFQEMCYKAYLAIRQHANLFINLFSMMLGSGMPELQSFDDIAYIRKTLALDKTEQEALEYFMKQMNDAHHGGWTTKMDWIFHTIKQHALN
PI3K, sequence (P27986 whole entry partner): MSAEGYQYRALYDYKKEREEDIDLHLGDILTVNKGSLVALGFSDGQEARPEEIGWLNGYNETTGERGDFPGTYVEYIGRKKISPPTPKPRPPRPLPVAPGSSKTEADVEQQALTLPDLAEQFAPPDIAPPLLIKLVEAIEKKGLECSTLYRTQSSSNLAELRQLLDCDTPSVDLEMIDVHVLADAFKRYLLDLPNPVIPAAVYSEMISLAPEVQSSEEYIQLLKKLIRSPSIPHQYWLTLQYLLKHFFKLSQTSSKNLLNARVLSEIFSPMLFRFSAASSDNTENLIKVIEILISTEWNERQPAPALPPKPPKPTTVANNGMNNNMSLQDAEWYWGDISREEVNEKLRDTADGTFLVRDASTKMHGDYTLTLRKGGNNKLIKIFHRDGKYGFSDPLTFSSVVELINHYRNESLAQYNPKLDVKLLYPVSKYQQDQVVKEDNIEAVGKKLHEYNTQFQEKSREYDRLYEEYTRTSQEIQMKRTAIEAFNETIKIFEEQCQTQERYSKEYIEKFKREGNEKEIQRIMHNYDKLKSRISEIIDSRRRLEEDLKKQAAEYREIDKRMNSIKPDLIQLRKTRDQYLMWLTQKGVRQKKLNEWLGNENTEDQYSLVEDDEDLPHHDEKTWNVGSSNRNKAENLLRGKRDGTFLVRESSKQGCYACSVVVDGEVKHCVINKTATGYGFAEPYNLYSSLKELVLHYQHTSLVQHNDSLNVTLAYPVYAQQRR

As to `COC(=O)N1CCC(n2ncc3c(N4CCOCC4)nc(-c4ccc(NC(=O)Nc5cccnc5F)cc4)nc32)CC1` [Compound 863, methyl 4-[6-(4-{[(2-fluoropyridin-3-yl)carbamoyl]amino}phenyl)-4-morpholin-4-yl-1H-pyrazolo[3,4-d]pyrimidin-1-yl]piperidine-1-carboxylate], the IC50 in the assay with breast line MDA468 (Homo sapiens, 72 h) turned out to be 680 nM; in the assay with prostate line LNCap (Homo sapiens, LNCaP, 72 h), 170 nM; at PI3K (PI3Kα, read-out: PI3Kα IC50), 266 nM.

With `O=C(Nc1ccc(-c2nc(N3CCOCC3)c3cnn(C4CCN(C(=O)c5cccnc5)CC4)c3n2)cc1)NC1CC1` [Example 415, 1-cyclopropyl-3-(4-{4-morpholin-4-yl-1-[1-(pyridin-3-ylcarbonyl)piperidin-4-yl]-1H-pyrazolo[3,4-d]pyrimidin-6-yl}phenyl)urea], the IC50 was 700 nM with breast line MDA468 (Homo sapiens, 72 h); 370 nM in the assay on prostate line LNCap (Homo sapiens, LNCaP, 72 h); 357 nM on PI3K (PI3Kα, read-out: PI3Kα IC50).

On to `CNC(=O)Nc1ccc(-c2nc(N3CCOCC3)c3cnn(C4CCN(CC(N)=O)CC4)c3n2)cc1` [Example 332, 2-[4-(6-{4-[(methylcarbamoyl)amino]phenyl}-4-morpholin-4-yl-1H-pyrazolo[3,4-d]pyrimidin-1-yl)piperidin-1-yl]acetamide], for which the 50% inhibitory concentration (IC50) in the assay with breast line MDA468 (Homo sapiens, 72 h) worked out at 1000 nM; with prostate line LNCap (Homo sapiens, LNCaP, 72 h), 600 nM; on PI3K (PI3Kα, read-out: PI3Kα IC50), 66 nM.

Regarding `O=C(N1CCOCC1)N1CCC(n2ncc3c(N4CCOCC4)nc(-c4ccc5[nH]ccc5c4)nc32)CC1` [Compound 121], the IC50 worked out at 2000 nM in the assay on breast line MDA468 (Homo sapiens, 72 h); 600 nM in the assay on prostate line LNCap (Homo sapiens, LNCaP, 72 h); 2130 nM at PI3K (PI3Kα, read-out: PI3Kα IC50).

`CONC(=O)Nc1ccc(-c2nc(N3CCOCC3)c3cnn(C4CCN(C(=O)c5cccnc5)CC4)c3n2)cc1` [Example 308, 1-methoxy-3-(4-{4-morpholin-4-yl-1-[1-(pyridin-3-ylcarbonyl)piperidin-4-yl]-1H-pyrazolo[3,4-d]pyrimidin-6-yl}phenyl)urea]: the IC50 in the assay on breast line MDA468 (Homo sapiens, 72 h) is 3000 nM; in the assay with prostate line LNCap (Homo sapiens, LNCaP, 72 h) it was 800 nM; at PI3K (PI3Kα, read-out: PI3Kα IC50) it was 1810 nM.

On to `COC(=O)Nc1ccc(-c2nc(N3CCOCC3)c3cnn(C4CCN(Cc5ccc(Cl)cc5)CC4)c3n2)cc1` [Compound 695, methyl (4-{1-[1-(4-chlorobenzyl)piperidin-4-yl]-4-morpholin-4-yl-1H-pyrazolo[3,4-d]pyrimidin-6-yl}phenyl)carbamate], for which the IC50 in the assay with breast line MDA468 was 9000 nM; with prostate line LNCap, 2000 nM; at PI3K (PI3Kα, read-out: PI3Kα IC50) it was 388 nM.

As for `c1ccc(-n2ncc3c(N4CCOCC4)nc(-c4cc5ccccc5s4)nc32)cc1` [Compound 113], the IC50 was 23000 nM in the assay with breast line MDA468 (Homo sapiens, 72 h); 22000 nM with prostate line LNCap (Homo sapiens, LNCaP, 72 h); 2170 nM at PI3K (PI3Kα, read-out: PI3Kα IC50).

Consider `CNC(=O)Nc1ccc(-c2nc(N3CCOCC3)c3cnn(C4CCN(C(=S)NC)CC4)c3n2)cc1` [Compound 760, N-methyl-4-(6-{4-[(methylcarbamoyl)amino]phenyl}-4-morpholin-4-yl-1H-pyrazolo[3,4-d]pyrimidin-1-yl)piperidine-1-carbothioamide], for which the 50% inhibitory concentration (IC50) in the assay on breast line MDA468 (Homo sapiens, 72 h) stood at 50 nM; in the assay with prostate line LNCap (Homo sapiens, LNCaP, 72 h) it was 170 nM; at PI3K (PI3Kα, read-out: PI3Kα IC50) it was 42 nM.

As for `CNC(=O)Nc1ccc(-c2nc(N3CCOCC3)c3cnn(C4CCN(C(=O)Nc5cccnc5)CC4)c3n2)cc1` [Compound 579, 4-(6-{4-[(methylcarbamoyl)amino]phenyl}-4-morpholin-4-yl-1H-pyrazolo[3,4-d]pyrimidin-1-yl)-N-pyridin-3-ylpiperidine-1-carboxamide], the half-maximal inhibitory concentration (IC50) with breast line MDA468 (Homo sapiens, 72 h) was 2500 nM; with prostate line LNCap (Homo sapiens, LNCaP, 72 h) it was 3000 nM; at PI3K (PI3Kα, read-out: PI3Kα IC50) it was 30 nM.

Take `Cc1ncccc1C(=O)N1CCC(n2ncc3c(N4CCOCC4)nc(-c4ccc5[nH]ccc5c4)nc32)CC1` [Example 200, 6-(1H-indol-5-yl)-1-{1-[(2-methylpyridin-3-yl)carbonyl]piperidin-4-yl}-4-morpholin-4-yl-1H-pyrazolo[3,4-d]pyrimidine]: the IC50 in the assay on breast line MDA468 (Homo sapiens, 72 h) is 2000 nM; with prostate line LNCap (Homo sapiens, LNCaP, 72 h) it was 750 nM; on PI3K (PI3Kα, read-out: PI3Kα IC50) it was 2390 nM.

On to `CCOC(=O)N1CCC(n2ncc3c(N4CCOC[C@H]4C)nc(-c4ccc(NC(=O)NCCF)cc4)nc32)CC1` [Compound 890, ethyl 4-{6-(4-{[(2-fluoroethyl)carbamoyl]amino}phenyl)-4-[(3R)-3-methylmorpholin-4-yl]-1H-pyrazolo[3,4-d]pyrimidin-1-yl}piperidine-1-carboxylate], for which the IC50 is 500 nM in the assay on breast line MDA468 (Homo sapiens, 72 h); 12 nM in the assay with prostate line LNCap (Homo sapiens, LNCaP, 72 h); 4550 nM on PI3K (PI3Kα, read-out: PI3Kα IC50).

Regarding `COC(=O)Nc1ccc(-c2nc(N3CCOCC3)c3cnn(C4CCN(C(=O)c5ccccc5Cl)CC4)c3n2)cc1` [Compound 688, methyl (4-{1-[1-(2-chlorobenzoyl)piperidin-4-yl]-4-morpholin-4-yl-1H-pyrazolo[3,4-d]pyrimidin-6-yl}phenyl)carbamate], the half-inhibitory concentration (IC50) came out at 750 nM in the assay on breast line MDA468; 250 nM in the assay with prostate line LNCap; 778 nM at PI3K (PI3Kα, read-out: PI3Kα IC50).

Regarding `O=C1CCCN1CCn1ncc2c(N3CCOCC3)nc(-c3ccc4[nH]ccc4c3)nc21` [Compound 161], the IC50 stood at 60000 nM with breast line MDA468 (Homo sapiens, 72 h); 14000 nM in the assay on prostate line LNCap (Homo sapiens, LNCaP, 72 h); 3510 nM on PI3K (PI3Kα, read-out: PI3Kα IC50).

With `CNC(=O)Nc1ccc(-c2nc(N3CCOCC3)c3cnn(C4CCN(Cc5ccccc5Cl)CC4)c3n2)cc1` [Example 396, 1-(4-{1-[1-(2-chlorobenzyl)piperidin-4-yl]-4-morpholin-4-yl-1H-pyrazolo[3,4-d]pyrimidin-6-yl}phenyl)-3-methylurea], the half-maximal inhibitory concentration (IC50) came to 200 nM with breast line MDA468 (Homo sapiens, 72 h); 38 nM with prostate line LNCap (Homo sapiens, LNCaP, 72 h); 35 nM on PI3K (PI3Kα, read-out: PI3Kα IC50).

Regarding `c1ccc(CN2CCC(n3ncc4c(N5CCOCC5)nc(-c5ccc6[nH]ccc6c5)nc43)CC2)nc1` [Compound 178], the IC50 with breast line MDA468 (Homo sapiens, 72 h) was 2100 nM; in the assay with prostate line LNCap (Homo sapiens, LNCaP, 72 h), 550 nM; on PI3K (PI3Kα, read-out: PI3Kα IC50) it was 509 nM.

On to `NNC(=O)Nc1ccc(-c2nc(N3CCOCC3)c3cnn(C4CCN(Cc5ccccc5)CC4)c3n2)cc1` [Example 309, N-{4-[1-(1-benzylpiperidin-4-yl)-4-morpholin-4-yl-1H-pyrazolo[3,4-d]pyrimidin-6-yl]phenyl}hydrazinecarboxamide], for which the IC50 was 7500 nM in the assay with breast line MDA468 (Homo sapiens, 72 h); 900 nM in the assay on prostate line LNCap (Homo sapiens, LNCaP, 72 h); 155 nM at PI3K (PI3Kα, read-out: PI3Kα IC50).

Take `O=C(Nc1ccc(-c2nc(N3CCOCC3)c3cnn(C4CCNCC4)c3n2)cc1)Nc1ccccn1` [Compound 778, 1-[4-(4-morpholin-4-yl-1-piperidin-4-yl-1H-pyrazolo[3,4-d]pyrimidin-6-yl)phenyl]-3-pyridin-2-ylurea]: the IC50 in the assay on breast line MDA468 (Homo sapiens, 72 h) was found to be 1600 nM; in the assay on prostate line LNCap (Homo sapiens, LNCaP, 72 h) it was 1300 nM; on PI3K (PI3Kα, read-out: PI3Kα IC50) it was 154 nM.

Take `Nc1cccc(-c2nc(N3CCOCC3)c3cnn(C4CCN(C(=O)c5cccnc5)CC4)c3n2)n1` [Compound 436, 6-{4-morpholin-4-yl-1-[1-(pyridin-3-ylcarbonyl)piperidin-4-yl]-1H-pyrazolo[3,4-d]pyrimidin-6-yl}pyridin-2-amine]: the IC50 stood at 25000 nM in the assay with breast line MDA468 (Homo sapiens, 72 h); 9800 nM in the assay on prostate line LNCap (Homo sapiens, LNCaP, 72 h); 4990 nM on PI3K (PI3Kα, read-out: PI3Kα IC50).

Regarding `Cn1ccc2cc(-c3nc(N4CCOCC4)c4cnn(C5CCN(Cc6ccccc6)CC5)c4n3)ccc21` [Compound 89], the 50% inhibitory concentration (IC50) with breast line MDA468 (Homo sapiens, 72 h) is 20000 nM; in the assay with prostate line LNCap (Homo sapiens, LNCaP, 72 h) it was 15000 nM; on PI3K (PI3Kα, read-out: PI3Kα IC50) it was 5190 nM.

As for `CNC(=O)Nc1ccc(-c2nc(N3CCOCC3)c3cnn(C4CCN(CC#N)CC4)c3n2)cc1` [Compound 793, 1-(4-{1-[1-(cyanomethyl)piperidin-4-yl]-4-morpholin-4-yl-1H-pyrazolo[3,4-d]pyrimidin-6-yl}phenyl)-3-methylurea], the IC50 turned out to be 1200 nM with breast line MDA468 (Homo sapiens, 72 h); 1010 nM with prostate line LNCap (Homo sapiens, LNCaP, 72 h); 76 nM on PI3K (PI3Kα, read-out: PI3Kα IC50).

`CNC(=O)Nc1ccc(-c2nc(N3CCOCC3)c3cnn(C4CCN(C(=O)c5cccc(C)c5)CC4)c3n2)cc1` [Compound 612, 1-methyl-3-(4-{1-[1-(3-methylbenzoyl)piperidin-4-yl]-4-morpholin-4-yl-1H-pyrazolo[3,4-d]pyrimidin-6-yl}phenyl)urea]: the half-inhibitory concentration (IC50) in the assay with breast line MDA468 (Homo sapiens, 72 h) is 27 nM; with prostate line LNCap (Homo sapiens, LNCaP, 72 h), below 27 nM; on PI3K (PI3Kα, read-out: PI3Kα IC50), 72 nM.

In the case of `CN(C)CC=CC(=O)N1CCC(n2ncc3c(N4CCOCC4)nc(-c4ccc5[nH]ccc5c4)nc32)CC1` [Compound 487, 4-{4-[6-(1H-indol-5-yl)-4-morpholin-4-yl-1H-pyrazolo[3,4-d]pyrimidin-1-yl]piperidin-1-yl}-N,N-dimethyl-4-oxobut-2-en-1-amine], the 50% inhibitory concentration (IC50) with breast line MDA468 (Homo sapiens, 72 h) turned out to be 2000 nM; in the assay with prostate line LNCap (Homo sapiens, LNCaP, 72 h), 1000 nM; at PI3K (PI3Kα, read-out: PI3Kα IC50), 480 nM.

With `CNC(=O)Nc1ccc(-c2nc(N3CCOCC3)c3cnn([C@@H]4CCCN(C(=O)OC(C)(C)C)C4)c3n2)cc1` [Compound 874, tert-butyl (3R)-3-(6-{4-[(methylcarbamoyl)amino]phenyl}-4-morpholin-4-yl-1H-pyrazolo[3,4-d]pyrimidin-1-yl)piperidine-1-carboxylate], the IC50 in the assay with breast line MDA468 (Homo sapiens, 72 h) amounted to 1100 nM; with prostate line LNCap (Homo sapiens, LNCaP, 72 h) it was 400 nM; on PI3K (PI3Kα, read-out: PI3Kα IC50), 294 nM.

As to `CC(=O)Nc1ccc(-c2nc(N3CCOCC3)c3cnn(-c4ccccc4)c3n2)cn1` [Compound 148], the IC50 came to 60000 nM with breast line MDA468 (Homo sapiens, 72 h); 60000 nM in the assay with prostate line LNCap (Homo sapiens, LNCaP, 72 h); 162 nM on PI3K (PI3Kα, read-out: PI3Kα IC50).

`COC(=O)N1CCC(n2ncc3c(N4CCOCC4)nc(-c4ccc(NC(=O)Oc5ccc(Cl)cc5)cc4)nc32)CC1` [Compound 950, methyl 4-[6-(4-{[(4-chlorophenoxy)carbonyl]amino}phenyl)-4-morpholin-4-yl-1H-pyrazolo[3,4-d]pyrimidin-1-yl]piperidine-1-carboxylate]: the concentration for half-maximal inhibition (IC50) was 17000 nM with breast line MDA468 (Homo sapiens, 72 h); 4900 nM in the assay with prostate line LNCap (Homo sapiens, 72 h); 9010 nM against PI3K (PI3Kα IC50, PI3Kα).

For `O=C(c1ccco1)N1CCC(n2ncc3c(N4CCOCC4)nc(-c4cccc(O)c4)nc32)CC1` [Example 22], the 50% inhibitory concentration (IC50) with breast line MDA468 (Homo sapiens, 72 h) came to 900 nM; in the assay on prostate line LNCap (Homo sapiens, LNCaP, 72 h), 300 nM; at PI3K (PI3Kα, read-out: PI3Kα IC50), 31 nM.
